Like-named read-outs stand apart in the source and are kept apart here.
Key:
[1] = test system: primary human CD34+ hematopoietic stem and progenitor cells; details: Mandal et al. 2014; cited from earlier work
[2] = test system: Cas9 with gRNA targeting CCR5 in HEK293 cells; assay: High Throughput Genome-wide Translocation Sequencing (HTGTS) off-target analysis; assay type: cell-based, human
Source text: However the impact of DNA repair pathway choice manipulation on genomic integrity is largely unaddressed. To address the impact of ectopic expression of RAD52 and dn53BP1 genomic integrity and CRISPR/Cas9-associated off-target effects the state of the art “High Throughput Genome-wide Translocation Sequencing” (HTGTS)^20—an unbiased approach to monitor off-target (OT) cutting—was utilized. […] As CRISPR/Cas9 may have unintended cutting activity at totally unrelated sequences that can not be predicted by an algorithm, the off-target activity of each guide by HTGTS was examined (data not shown). Though majority of the OTs identified by HGTS overlapped with those identified previously, it was possible to detect novel OTs (data not shown). To study the impact of RAD52 and dn53BP1 on OTs and genomic integrity one guide with no OTs (CCR5D) and other guide that has 7 OTs identified by HTGTS (CCR5Q) were further examined.
HTGTS and Off-Target Analysis. Off-target analysis was carried out by HTGTS as described earlier^20. Briefly, HEK293 cells were co-transfected with expression plasmids encoding Cas9:RAG1B (20 μg), guide RNA targeting CCR5 (10 μg), RAD52 and dn53BP1 (5 μg each) and GFA (5 μg) using Calcium Phosphate. Cells were lysed 48 hours post-transfection and DNA was isolated by ethanol precipitation. 50 μg of DNA was processed for HTGTS as described^20.
However, the impact that such manipulations may have on genomic integrity has not been addressed. To address the impact of ectopic expression of RAD52 and dn53BP1 on genomic integrity and CRISPR/Cas9 specificity High Throughput Genome-wide Translocation Sequencing (HTGTS) was utilized (Frock et al., 2014)—an unbiased approach to monitor the specificity and off-target (OT) activity of Cas9 and other engineered nucleases as well as other types of DSBs.
HTGTS was conducted to analyse off-target effects for gRNA targeting CCR5 (FIG. 8A).

Row | Substance | off-target activity in CD34+ HSPC [1] | number of off-target sites (OTs) identified by HTGTS [2] | number of off-target sites (OTs) identified by HTGTS ([2]; listed as CCR5D)
1 | gCCR5D: guide RNA targeting CCR5, spacer TCACTATGCTGCCGCCCAGT (guide TCACTATGCTGCCGCCCAGTGGG; listed as DNA, chemistry not given here; the letters are possibly those of the target site; listed as Homo sapiens) | did not exhibit OT activity | no OT | no OTs
2 | gCCR5Q: guide RNA targeting CCR5, spacer GCTGTGTTTGCGTCTCTCCC (guide GCTGTGTTTGCGTCTCTCCCAGG; listed as DNA, chemistry not given here; the letters are possibly those of the target site; listed as Homo sapiens) | did not exhibit OT activity | 7 | –
